Laboratory results from ChEMBL document CHEMBL3351591, “Synthetic (+)-terrein suppresses interleukin-6/soluble interleukin-6 receptor induced-secretion of vascular endothelial growth factor in human gingival fibroblasts” (Bioorg Med Chem, 2014).
Calls of active or inactive are those of the source. The rule behind the calls is not given here.

What was measured:
[1] = Cytotoxicity against HGF cells assessed as reduction in cell proliferation at >50 uM incubated for 24 hrs by MTT assay; assay type: cell-based; details: human
HGF [2] = test: Inhibition of IL-6/soluble IL-6 receptor signaling-induced STAT3 phosphorylation in HGF cells pre-incubated at 10 to 20 uM for before IL-6/soluble IL-6 receptor stimulation for 5 mins by Western blotting method; assay type: cell-based; details: Homo sapiens
HGF [3] = test: Inhibition of IL-6/soluble IL-6 receptor signaling-induced ERK1/2 phosphorylation in HGF cells pre-incubated at 10 to 20 uM for before IL-6/soluble IL-6 receptor stimulation for 5 mins by Western blotting method; assay type: cell-based; details: Homo sapiens
HGF [4] = test: Inhibition of endogenous VEGF secretion in HGF cells at 0.01 to 10 uM by ELISA method; assay type: functional, cell-based; details: Homo sapiens
HGF [5] = test: Inhibition of IL-6/soluble IL-6 receptor signaling-induced JNK1/2 phosphorylation in HGF cells pre-incubated at 10 to 20 uM for before IL-6/soluble IL-6 receptor stimulation for 5 mins by Western blotting method; assay type: cell-based; details: Homo sapiens
[6] = Cytotoxicity against HGF cells assessed as cell proliferation at <10 uM incubated for 24 hrs by MTT assay; assay type: cell-based; details: human
HGF [7] = test: Inhibition of IL-6/soluble IL-6 receptor signaling-induced VEGF secretion in HGF cells pre-incubated for 30 mins before IL-6/soluble IL-6 receptor stimulation for 24 hrs by ELISA method; assay type: cell-based; details: Homo sapiens

For `C/C=C/C1=CC(=O)[C@H](O)[C@H]1O`, the Activity [1] was “Toxic”, the inhibition (HGF [2]) was “Active” and the inhibition (HGF [3]) was “Active”. The inhibition (HGF [4]) was “inactive”, the inhibition (HGF [5]) was “Active” and the Activity [6] was “Non-toxic”. For the same compound, the inhibition (HGF [7]) was “Dose-dependent effect”.
